# Columns and labels:
# Assay in all cases: relative viability (nuclei count vs DMSO), 5 days (fraction); higher = more cells survive
# LOU-NH91 = system: LOU-NH91
# Method in brief: (§1)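 After 5 days of treatment, lung cancer cells in 1536-well plates were fixed and stained in a single step (final 0.05% Triton X-100, 1% formaldehyde, 1 ug/ml Hoechst) and their nuclei counted on 4× images. Treatment had been applied by pin tool the day after seeding as one drug alone or as a fixed anchor-drug dose with five library-drug doses (not always all listed) in √10 steps. Relative viability is the nuclei count of treated wells divided by that of vehicle wells, and values are medians of duplicate plates.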
# 201T = system: 201T
# Method in brief: as §1
# NCI-H1993 = system: NCI-H1993
# Method in brief: as §1
# NCI-H2085 = system: NCI-H2085
# Method in brief: as §1
# NCI-H441 = system: NCI-H441
# Method in brief: as §1
# NCI-H3122 = system: NCI-H3122
# Method in brief: as §1
# NCI-H1563 = system: NCI-H1563
# Method in brief: as §1
# NCI-H1793 = system: NCI-H1793
# Method in brief: as §1
# NCI-H2170 = system: NCI-H2170
# Method in brief: as §1
# NCI-H520 = system: NCI-H520
# Method in brief: as §1
# RERF-LC-KJ = system: RERF-LC-KJ
# Method in brief: as §1
# NCI-H2023 = system: NCI-H2023
# Method in brief: as §1
# SW 900 = system: SW 900
# Method in brief: as §1
# ABC-1 = system: ABC-1
# Method in brief: as §1
# NCI-H1650 = system: NCI-H1650
# Method in brief: as §1
# COR-L23 = system: COR-L23
# Method in brief: as §1
# EPLC-272H = system: EPLC-272H
# Method in brief: as §1
# NCI-H2405 = system: NCI-H2405
# Method in brief: as §1
# NCI-H647 = system: NCI-H647
# Method in brief: as §1
# PC-14 = system: PC-14
# Method in brief: as §1
# NCI-H2347 = system: NCI-H2347
# Method in brief: as §1
# EKVX = system: EKVX
# Method in brief: as §1
# NCI-H1734 = system: NCI-H1734
# Method in brief: as §1
structure (smiles),measurement,setting,value
C[C@@H]1CN(CC(=O)Nc2ccc3c(c2)Cc2cccc(-c4cc(=O)cc(N5CCOCC5)o4)c2S3)C[C@H](C)O1 + Cc1nc(Nc2ncc(C(=O)Nc3c(C)cccc3Cl)s2)cc(N2CCN(CCO)CC2)n1 [Dasatinib] (partner 0.075 µM),relative viability,LOU-NH91; first compound 0.04 µM,0.588
same,relative viability,LOU-NH91; first compound 0.1265 µM,0.51
same,relative viability,LOU-NH91; first compound 0.4 µM,0.476
same,relative viability,LOU-NH91; first compound 4 µM,0.492
same,relative viability,201T; first compound 0.04 µM,0.624
same,relative viability,201T; first compound 0.1265 µM,0.525
same,relative viability,201T; first compound 0.4 µM,0.581
same,relative viability,201T; first compound 4 µM,0.52
same,relative viability,NCI-H1993; first compound 0.04 µM,0.643
same,relative viability,NCI-H1993; first compound 0.1265 µM,0.626
same,relative viability,NCI-H1993; first compound 0.4 µM,0.556
same,relative viability,NCI-H1993; first compound 4 µM,0.641
same,relative viability,NCI-H2085; first compound 0.04 µM,0.222
same,relative viability,NCI-H2085; first compound 0.1265 µM,0.245
same,relative viability,NCI-H2085; first compound 0.4 µM,0.235
same,relative viability,NCI-H2085; first compound 4 µM,0.247
same,relative viability,NCI-H441; first compound 0.04 µM,0.762
same,relative viability,NCI-H441; first compound 0.1265 µM,0.46
same,relative viability,NCI-H441; first compound 0.4 µM,0.62
same,relative viability,NCI-H441; first compound 4 µM,0.538
same,relative viability,NCI-H3122; first compound 0.04 µM,0.797
same,relative viability,NCI-H3122; first compound 0.1265 µM,0.838
same,relative viability,NCI-H3122; first compound 0.4 µM,0.827
same,relative viability,NCI-H3122; first compound 4 µM,0.844
same,relative viability,NCI-H1563; first compound 0.04 µM,0.433
same,relative viability,NCI-H1563; first compound 0.1265 µM,0.429
same,relative viability,NCI-H1563; first compound 0.4 µM,0.445
same,relative viability,NCI-H1563; first compound 4 µM,0.433
same,relative viability,NCI-H1793; first compound 0.04 µM,0.403
same,relative viability,NCI-H1793; first compound 0.1265 µM,0.373
same,relative viability,NCI-H1793; first compound 0.4 µM,0.414
same,relative viability,NCI-H1793; first compound 4 µM,0.342
same,relative viability,NCI-H2170; first compound 0.04 µM,0.569
same,relative viability,NCI-H2170; first compound 0.1265 µM,0.581
same,relative viability,NCI-H2170; first compound 0.4 µM,0.711
same,relative viability,NCI-H2170; first compound 4 µM,0.57
same,relative viability,NCI-H520; first compound 0.04 µM,0.216
same,relative viability,NCI-H520; first compound 0.1265 µM,0.227
same,relative viability,NCI-H520; first compound 0.4 µM,0.248
same,relative viability,NCI-H520; first compound 4 µM,0.136
same,relative viability,RERF-LC-KJ; first compound 0.04 µM,0.877
same,relative viability,RERF-LC-KJ; first compound 0.1265 µM,0.813
same,relative viability,RERF-LC-KJ; first compound 0.4 µM,0.782
same,relative viability,RERF-LC-KJ; first compound 4 µM,0.665
same,relative viability,NCI-H2023; first compound 0.04 µM,0.638
same,relative viability,NCI-H2023; first compound 0.1265 µM,0.512
same,relative viability,NCI-H2023; first compound 0.4 µM,0.415
same,relative viability,NCI-H2023; first compound 4 µM,0.342
same,relative viability,SW 900; first compound 0.04 µM,0.509
same,relative viability,SW 900; first compound 0.1265 µM,0.801
same,relative viability,SW 900; first compound 0.4 µM,0.66
same,relative viability,SW 900; first compound 4 µM,0.375
same,relative viability,ABC-1; first compound 0.1265 µM,0.571
same,relative viability,ABC-1; first compound 0.4 µM,0.447
same,relative viability,ABC-1; first compound 4 µM,0.504
same,relative viability,NCI-H1650; first compound 0.04 µM,0.31
same,relative viability,NCI-H1650; first compound 0.1265 µM,0.293
same,relative viability,NCI-H1650; first compound 0.4 µM,0.301
same,relative viability,NCI-H1650; first compound 4 µM,0.244
same,relative viability,COR-L23; first compound 0.04 µM,0.588
same,relative viability,COR-L23; first compound 0.1265 µM,0.46
same,relative viability,COR-L23; first compound 0.4 µM,0.593
same,relative viability,COR-L23; first compound 4 µM,0.369
same,relative viability,EPLC-272H; first compound 0.04 µM,0.459
same,relative viability,EPLC-272H; first compound 0.1265 µM,0.284
same,relative viability,EPLC-272H; first compound 0.4 µM,0.319
same,relative viability,EPLC-272H; first compound 4 µM,0.341
same,relative viability,NCI-H2405; first compound 0.04 µM,0.226
same,relative viability,NCI-H2405; first compound 0.1265 µM,0.187
same,relative viability,NCI-H2405; first compound 0.4 µM,0.229
same,relative viability,NCI-H2405; first compound 4 µM,0.169
same,relative viability,NCI-H647; first compound 0.04 µM,0.236
same,relative viability,NCI-H647; first compound 0.1265 µM,0.159
same,relative viability,NCI-H647; first compound 0.4 µM,0.161
same,relative viability,NCI-H647; first compound 4 µM,0.146
same,relative viability,PC-14; first compound 0.04 µM,0.286
same,relative viability,PC-14; first compound 0.1265 µM,0.254
same,relative viability,PC-14; first compound 0.4 µM,0.314
same,relative viability,PC-14; first compound 4 µM,0.147
same,relative viability,NCI-H2347; first compound 0.04 µM,0.329
same,relative viability,NCI-H2347; first compound 0.1265 µM,0.39
same,relative viability,NCI-H2347; first compound 0.4 µM,0.248
same,relative viability,NCI-H2347; first compound 4 µM,0.337
same,relative viability,EKVX; first compound 0.04 µM,0.576
same,relative viability,EKVX; first compound 0.1265 µM,0.568
same,relative viability,EKVX; first compound 0.4 µM,0.603
same,relative viability,EKVX; first compound 4 µM,0.475
same,relative viability,NCI-H1734; first compound 0.04 µM,0.475
same,relative viability,NCI-H1734; first compound 0.1265 µM,0.489
same,relative viability,NCI-H1734; first compound 0.4 µM,0.5
same,relative viability,NCI-H1734; first compound 4 µM,0.517
CC(C)Oc1cc(Nc2nc(N[C@@H](C)c3ccc(F)cn3)ncc2Cl)n[nH]1 [AZ23] + COc1cc2c(Oc3ccc(NC(=O)C4(C(=O)Nc5ccc(F)cc5)CC4)cc3F)ccnc2cc1OCCCN1CCOCC1 [Foretinib] (partner 0.25 µM),relative viability,LOU-NH91; first compound 0.01 µM,0.941
same,relative viability,LOU-NH91; first compound 0.03162 µM,0.975
same,relative viability,LOU-NH91; first compound 0.3162 µM,0.927
same,relative viability,201T; first compound 0.03162 µM,1.28
same,relative viability,201T; first compound 0.3162 µM,1.13
same,relative viability,NCI-H1993; first compound 0.01 µM,0.66
same,relative viability,NCI-H1993; first compound 0.03162 µM,0.725
same,relative viability,NCI-H1993; first compound 0.3162 µM,0.753
same,relative viability,NCI-H2085; first compound 0.01 µM,0.848
same,relative viability,NCI-H2085; first compound 0.03162 µM,1.22
same,relative viability,NCI-H2085; first compound 0.3162 µM,1.08
same,relative viability,NCI-H441; first compound 0.01 µM,1.52
same,relative viability,NCI-H441; first compound 0.03162 µM,0.854
same,relative viability,NCI-H441; first compound 0.3162 µM,0.967
same,relative viability,NCI-H3122; first compound 0.01 µM,1.15
same,relative viability,NCI-H3122; first compound 0.03162 µM,0.918
same,relative viability,NCI-H3122; first compound 0.3162 µM,0.981
same,relative viability,NCI-H1563; first compound 0.01 µM,0.922
same,relative viability,NCI-H1563; first compound 0.03162 µM,1.01
same,relative viability,NCI-H1563; first compound 0.3162 µM,0.993
same,relative viability,NCI-H1793; first compound 0.01 µM,0.879
same,relative viability,NCI-H1793; first compound 0.03162 µM,0.859
same,relative viability,NCI-H1793; first compound 0.3162 µM,0.713
same,relative viability,NCI-H2170; first compound 0.01 µM,1.16
same,relative viability,NCI-H2170; first compound 0.03162 µM,0.98
same,relative viability,NCI-H2170; first compound 0.3162 µM,0.849
same,relative viability,NCI-H520; first compound 0.01 µM,0.813
same,relative viability,NCI-H520; first compound 0.03162 µM,0.966
same,relative viability,NCI-H520; first compound 0.3162 µM,0.677
same,relative viability,RERF-LC-KJ; first compound 0.01 µM,1.09
same,relative viability,RERF-LC-KJ; first compound 0.03162 µM,0.877
same,relative viability,RERF-LC-KJ; first compound 0.3162 µM,0.852
same,relative viability,NCI-H2023; first compound 0.03162 µM,0.88
same,relative viability,NCI-H2023; first compound 0.3162 µM,0.924
same,relative viability,SW 900; first compound 0.01 µM,1.04
same,relative viability,SW 900; first compound 0.03162 µM,0.844
same,relative viability,SW 900; first compound 0.3162 µM,0.775
same,relative viability,ABC-1; first compound 0.01 µM,1.03
same,relative viability,ABC-1; first compound 0.03162 µM,1.04
same,relative viability,ABC-1; first compound 0.3162 µM,1.02
same,relative viability,NCI-H1650; first compound 0.03162 µM,1.51
same,relative viability,NCI-H1650; first compound 0.3162 µM,1.23
same,relative viability,COR-L23; first compound 0.01 µM,1.09
same,relative viability,COR-L23; first compound 0.03162 µM,1.02
same,relative viability,COR-L23; first compound 0.3162 µM,1.11
same,relative viability,EPLC-272H; first compound 0.01 µM,0.77
same,relative viability,EPLC-272H; first compound 0.03162 µM,0.74
same,relative viability,EPLC-272H; first compound 0.3162 µM,0.676
same,relative viability,NCI-H2405; first compound 0.01 µM,1.04
same,relative viability,NCI-H2405; first compound 0.03162 µM,1.05
same,relative viability,NCI-H2405; first compound 0.3162 µM,1.04
same,relative viability,NCI-H647; first compound 0.01 µM,1.24
same,relative viability,NCI-H647; first compound 0.03162 µM,1.24
same,relative viability,NCI-H647; first compound 0.3162 µM,1.44
same,relative viability,PC-14; first compound 0.01 µM,1.1
same,relative viability,PC-14; first compound 0.03162 µM,1
same,relative viability,PC-14; first compound 0.3162 µM,1.13
same,relative viability,NCI-H2347; first compound 0.01 µM,0.85
same,relative viability,NCI-H2347; first compound 0.03162 µM,0.986
same,relative viability,NCI-H2347; first compound 0.3162 µM,1.15
same,relative viability,EKVX; first compound 0.01 µM,0.782
same,relative viability,EKVX; first compound 0.03162 µM,0.988
same,relative viability,EKVX; first compound 0.3162 µM,0.565
same,relative viability,NCI-H1734; first compound 0.01 µM,0.803
same,relative viability,NCI-H1734; first compound 0.03162 µM,0.872
same,relative viability,NCI-H1734; first compound 0.3162 µM,0.796

# Source: the supplement of paper PMC10307832
